Measurements: ChEMBL document CHEMBL1201862, “PubChem BioAssay data set” (2004)
Calls of active or inactive are those of the source.

What was measured:
[1] = biological target: T1, Eukaryotic translation initiation factor 2-alpha kinase 3 (Homo sapiens, UniProt Q9NZJ5); test: Dose response cell-based high-throughput screening assay to measure PERK inhibition. [Related pubchem assays: 1416 ]; assay type: functional
[2] = biological target: T1, Eukaryotic translation initiation factor 2-alpha kinase 3; test: Counterscreen assay for PERK inhibitors: Dose response cell-based high throughput screening assay to measure inhibition of PERK at 6 hours. [Related pubchem assays: 1522, 1416 ]; assay type: functional
[3] = biological target: Lysosomal acid glucosylceramidase (Homo sapiens, UniProt P04062); test: Dose response cell-based high throughput screening assay to identify enhancers of beta-glucosidase activity. [Related pubchem assays: 784 ]; assay type: functional
[4] = biological target: Cytochrome P450 2D6 (Homo sapiens, UniProt P10635); test: qHTS Assay for Inhibitors and Substrates of Cytochrome P450 2D6. [Related pubchem assays: 410 ]; assay type: ADME; conditions: read-out: Potency
[5] = biological target: G2/mitotic-specific cyclin-B1 (Homo sapiens, UniProt P14635); test: Counterscreen assay for inhibitors of Wee1 degradation: dose response cell-based assay to identify inhibitors of cyclin B degradation. [Related pubchem assays: 1410, 1321 ]; assay type: functional
[6] = biological target: Wee1-like protein kinase (Homo sapiens, UniProt P30291); test: Dose Response Cell-based Assay for Inhibitors of Wee1 Degradation. [Related pubchem assays: 1410, 1321 ]; assay type: functional
[7] = inhibitors of firefly luciferase expression or activity, dose response, H4 neuroglioma cells, luminescence (AID 1990); assay type: functional, cell-based
[8] = luciferase reporter signal reduction – luminescence, H4-C neuroglioblastoma cells, dose response (AID 2458); assay type: functional, cell-based;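 note: H4 neuroglioblastoma cells stably carrying a luciferase reporter gene fusion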
[9] = cells; assay type: functional, cell-based
[10] = Luminescence Cell-Based Dose Response HTS to Identify Inhibitors of 5'UTR Stem-Loop Driven Prion Protein mRNA Translation in H4 Neuroglioblastoma Cells. [Related pubchem assays: 1827 (Project Summary), 1813 (Primary HTS)]; assay type: functional
[11] = inhibitors of SNCA 5'UTR-driven reporter translation, confirmation, H4 neuroglioma cells, luminescence (AID 1988); assay type: functional, cell-based
[12] = inhibitors of SNCA 5'UTR-driven translation, confirmation, luminescence, H4 neuroglioblastoma cells, dose confirmation (AID 2454); assay type: functional, cell-based;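 note: H4 neuroglioblastoma cells carrying an alpha-synuclein 5'UTR luciferase reporter; potency for inhibition of the luciferase signal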
[13] = biological target: Large T antigen (Simian virus 40, UniProt P03070); assay type: functional, Betapolyomavirus macacae;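 note: Confirmatory-stage PubChem screen for compounds that inhibit SV40 T antigen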
[14] = biological target: NS3 (Hepatitis C virus, UniProt A3EZJ3); test: PubChem AID 2173; set-up: species or system Hepacivirus hominis
[15] = biological target: C-C chemokine receptor type 6 (Homo sapiens, UniProt P51684); test: CCR6 receptor antagonists, dose response, cell-based, luminescent beta-arrestin readout (AID 504728); assay type: functional
[16] = biological target: Beta-galactosidase (Escherichia coli, UniProt Q8VNN2); test: beta-galactosidase enzyme inhibitors and activators, dose response, artefact control for CCR6 antagonist project, biochemical, E. coli enzyme, set 3 (AID 504712); assay type: functional
[17] = biological target: Heat shock protein HSP 90-alpha (Homo sapiens, UniProt P07900); assay type: functional, organism-based
[18] = biological target: T2, High affinity choline transporter 1 (Homo sapiens, UniProt Q9GZV3); test: CHT inhibitors, dose response, cell-based, 5-point CRC, membrane potential dye (AID 504840); assay type: functional
T2 sequence (Q9GZV3 whole entry): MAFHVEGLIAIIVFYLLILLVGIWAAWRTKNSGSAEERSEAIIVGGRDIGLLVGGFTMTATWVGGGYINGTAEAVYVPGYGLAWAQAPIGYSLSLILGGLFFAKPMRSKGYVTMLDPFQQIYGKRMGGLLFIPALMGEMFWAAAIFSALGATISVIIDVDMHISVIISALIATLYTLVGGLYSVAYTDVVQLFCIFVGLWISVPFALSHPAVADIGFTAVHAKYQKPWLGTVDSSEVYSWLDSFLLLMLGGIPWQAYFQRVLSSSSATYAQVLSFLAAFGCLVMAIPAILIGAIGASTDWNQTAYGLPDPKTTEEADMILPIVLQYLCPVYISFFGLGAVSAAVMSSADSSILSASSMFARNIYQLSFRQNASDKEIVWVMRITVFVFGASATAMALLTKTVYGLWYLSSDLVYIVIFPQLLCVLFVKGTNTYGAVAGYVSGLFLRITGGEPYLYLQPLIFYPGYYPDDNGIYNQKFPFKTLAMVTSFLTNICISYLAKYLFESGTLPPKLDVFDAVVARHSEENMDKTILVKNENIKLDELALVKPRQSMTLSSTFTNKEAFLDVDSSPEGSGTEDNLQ

[19] = biological target: Mothers against decapentaplegic homolog 3 (Homo sapiens, UniProt P84022); test: Smad3 binding inhibitors, lysate ELISA, dose response, cell lysate, secondary confirmation, chemiluminescent ELISA, HEK293 lysate (AID 1058); assay type: functional
[20] = biological target: Aspartyl aminopeptidase (Plasmodium falciparum 3D7, UniProt Q8I2J3)
[21] = biological target: Procathepsin L (Homo sapiens, UniProt P07711)
[22] = biological target: Dual specificity tyrosine-phosphorylation-regulated kinase 1A (Rattus norvegicus, UniProt Q63470); assay type: biochemical, Homo sapiens
[23] = biological target: T3, Rac GTPase-activating protein 1 (Homo sapiens, UniProt Q9H0H5); test: MgcRacGAP GTPase-activating activity inhibitors, confirmation, biochemical, ADP Hunter fluorescence, primary and confirmatory (AID 624330); assay type: functional
T3 sequence (Q9H0H5 whole entry): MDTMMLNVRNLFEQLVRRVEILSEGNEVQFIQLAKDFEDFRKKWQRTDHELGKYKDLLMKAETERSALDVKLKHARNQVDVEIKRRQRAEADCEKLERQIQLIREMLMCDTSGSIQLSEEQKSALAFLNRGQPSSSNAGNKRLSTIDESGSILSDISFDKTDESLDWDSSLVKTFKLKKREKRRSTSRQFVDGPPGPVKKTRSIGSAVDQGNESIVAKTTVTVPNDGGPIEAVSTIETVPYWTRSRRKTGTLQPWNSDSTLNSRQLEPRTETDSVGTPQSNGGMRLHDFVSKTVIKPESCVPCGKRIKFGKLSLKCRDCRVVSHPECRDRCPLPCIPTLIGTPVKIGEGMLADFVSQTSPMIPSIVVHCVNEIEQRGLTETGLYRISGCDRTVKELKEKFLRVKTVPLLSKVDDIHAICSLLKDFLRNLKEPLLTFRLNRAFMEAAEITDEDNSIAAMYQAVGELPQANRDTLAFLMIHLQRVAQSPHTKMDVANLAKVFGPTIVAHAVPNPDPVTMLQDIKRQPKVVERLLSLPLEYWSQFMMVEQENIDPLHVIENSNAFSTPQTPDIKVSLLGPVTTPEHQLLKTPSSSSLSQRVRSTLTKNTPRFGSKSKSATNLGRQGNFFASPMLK

T1 sequence (Q9NZJ5 whole entry): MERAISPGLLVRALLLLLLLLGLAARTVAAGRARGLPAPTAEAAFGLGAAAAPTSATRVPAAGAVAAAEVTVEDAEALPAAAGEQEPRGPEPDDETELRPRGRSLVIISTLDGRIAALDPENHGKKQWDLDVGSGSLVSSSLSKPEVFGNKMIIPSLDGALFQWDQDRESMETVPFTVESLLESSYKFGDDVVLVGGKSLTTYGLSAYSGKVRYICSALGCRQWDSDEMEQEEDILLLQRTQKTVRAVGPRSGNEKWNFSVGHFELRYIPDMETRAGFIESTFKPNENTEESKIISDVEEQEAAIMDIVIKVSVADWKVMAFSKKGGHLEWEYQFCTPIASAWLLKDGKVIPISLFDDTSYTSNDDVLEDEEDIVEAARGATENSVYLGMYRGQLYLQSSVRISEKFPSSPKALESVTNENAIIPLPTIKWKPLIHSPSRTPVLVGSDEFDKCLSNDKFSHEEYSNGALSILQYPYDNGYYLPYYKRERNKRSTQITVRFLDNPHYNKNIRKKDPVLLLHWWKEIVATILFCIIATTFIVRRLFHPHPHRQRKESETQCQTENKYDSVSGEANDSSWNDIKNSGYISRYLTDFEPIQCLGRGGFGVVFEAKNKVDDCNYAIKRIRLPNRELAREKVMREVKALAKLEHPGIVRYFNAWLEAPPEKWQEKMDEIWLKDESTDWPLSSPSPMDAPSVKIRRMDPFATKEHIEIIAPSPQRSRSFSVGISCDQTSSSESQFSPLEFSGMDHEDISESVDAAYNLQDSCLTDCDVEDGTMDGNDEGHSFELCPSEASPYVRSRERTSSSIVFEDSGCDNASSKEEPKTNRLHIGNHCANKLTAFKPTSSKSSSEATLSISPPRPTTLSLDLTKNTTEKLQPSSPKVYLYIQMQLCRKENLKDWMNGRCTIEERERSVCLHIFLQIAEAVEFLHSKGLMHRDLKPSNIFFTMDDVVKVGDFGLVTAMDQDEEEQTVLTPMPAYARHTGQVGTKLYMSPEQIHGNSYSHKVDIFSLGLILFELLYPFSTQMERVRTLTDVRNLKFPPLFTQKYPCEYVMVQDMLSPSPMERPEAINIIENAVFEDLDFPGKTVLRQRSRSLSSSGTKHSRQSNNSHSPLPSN
Large T antigen, sequence (P03070 whole entry): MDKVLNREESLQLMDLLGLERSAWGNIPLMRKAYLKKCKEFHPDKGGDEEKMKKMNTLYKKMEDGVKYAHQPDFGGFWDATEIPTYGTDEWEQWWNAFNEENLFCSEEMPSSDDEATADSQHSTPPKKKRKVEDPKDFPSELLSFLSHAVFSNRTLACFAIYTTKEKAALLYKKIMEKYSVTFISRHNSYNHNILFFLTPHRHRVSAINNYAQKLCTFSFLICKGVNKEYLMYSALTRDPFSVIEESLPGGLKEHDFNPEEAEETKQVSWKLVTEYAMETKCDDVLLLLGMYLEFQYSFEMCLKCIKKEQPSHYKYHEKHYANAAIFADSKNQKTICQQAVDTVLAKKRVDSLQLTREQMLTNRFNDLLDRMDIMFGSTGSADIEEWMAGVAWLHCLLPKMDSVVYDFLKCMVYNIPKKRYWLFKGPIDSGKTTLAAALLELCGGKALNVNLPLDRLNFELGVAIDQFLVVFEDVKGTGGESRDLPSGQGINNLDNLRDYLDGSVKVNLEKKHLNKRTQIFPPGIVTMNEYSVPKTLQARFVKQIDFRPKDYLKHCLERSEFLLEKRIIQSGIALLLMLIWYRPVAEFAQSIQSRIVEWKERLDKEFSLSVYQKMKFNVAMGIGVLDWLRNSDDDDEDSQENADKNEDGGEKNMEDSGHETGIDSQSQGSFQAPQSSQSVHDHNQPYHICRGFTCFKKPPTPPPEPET
G2/mitotic-specific cyclin-B1, sequence (P14635 whole entry): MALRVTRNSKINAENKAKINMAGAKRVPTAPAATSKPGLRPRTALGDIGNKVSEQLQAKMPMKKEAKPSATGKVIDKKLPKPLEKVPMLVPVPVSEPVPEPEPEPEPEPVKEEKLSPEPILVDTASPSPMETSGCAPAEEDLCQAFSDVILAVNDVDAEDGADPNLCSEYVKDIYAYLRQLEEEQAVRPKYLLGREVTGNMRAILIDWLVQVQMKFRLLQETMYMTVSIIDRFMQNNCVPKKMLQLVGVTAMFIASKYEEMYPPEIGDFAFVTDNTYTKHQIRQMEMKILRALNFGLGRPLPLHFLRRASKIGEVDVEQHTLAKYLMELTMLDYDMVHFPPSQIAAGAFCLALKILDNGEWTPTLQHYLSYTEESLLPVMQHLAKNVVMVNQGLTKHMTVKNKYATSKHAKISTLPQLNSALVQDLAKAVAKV
Procathepsin L, sequence (P07711 whole entry): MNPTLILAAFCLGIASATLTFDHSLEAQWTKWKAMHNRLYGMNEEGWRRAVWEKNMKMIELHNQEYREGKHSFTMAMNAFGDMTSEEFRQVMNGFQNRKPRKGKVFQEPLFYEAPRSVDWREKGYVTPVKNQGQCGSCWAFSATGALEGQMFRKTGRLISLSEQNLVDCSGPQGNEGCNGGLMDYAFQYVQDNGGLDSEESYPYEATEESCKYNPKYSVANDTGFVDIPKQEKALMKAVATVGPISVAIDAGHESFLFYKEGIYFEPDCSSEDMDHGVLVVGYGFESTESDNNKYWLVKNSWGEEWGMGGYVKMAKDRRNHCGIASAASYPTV
Aspartyl aminopeptidase, sequence (Q8I2J3 whole entry): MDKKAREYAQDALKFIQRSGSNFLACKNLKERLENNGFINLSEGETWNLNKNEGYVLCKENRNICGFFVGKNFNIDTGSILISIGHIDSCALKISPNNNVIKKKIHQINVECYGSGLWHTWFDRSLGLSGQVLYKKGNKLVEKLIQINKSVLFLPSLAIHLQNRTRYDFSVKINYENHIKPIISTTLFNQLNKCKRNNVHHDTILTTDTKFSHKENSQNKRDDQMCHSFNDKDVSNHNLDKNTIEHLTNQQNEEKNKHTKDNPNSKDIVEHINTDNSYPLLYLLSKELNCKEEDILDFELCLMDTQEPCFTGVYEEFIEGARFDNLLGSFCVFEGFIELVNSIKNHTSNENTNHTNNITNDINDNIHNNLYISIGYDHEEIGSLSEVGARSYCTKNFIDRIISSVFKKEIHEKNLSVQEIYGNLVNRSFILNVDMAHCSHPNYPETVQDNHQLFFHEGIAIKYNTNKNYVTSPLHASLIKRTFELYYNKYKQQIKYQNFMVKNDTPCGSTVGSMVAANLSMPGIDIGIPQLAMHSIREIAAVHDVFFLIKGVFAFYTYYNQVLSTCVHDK
Lysosomal acid glucosylceramidase, sequence (P04062 whole entry): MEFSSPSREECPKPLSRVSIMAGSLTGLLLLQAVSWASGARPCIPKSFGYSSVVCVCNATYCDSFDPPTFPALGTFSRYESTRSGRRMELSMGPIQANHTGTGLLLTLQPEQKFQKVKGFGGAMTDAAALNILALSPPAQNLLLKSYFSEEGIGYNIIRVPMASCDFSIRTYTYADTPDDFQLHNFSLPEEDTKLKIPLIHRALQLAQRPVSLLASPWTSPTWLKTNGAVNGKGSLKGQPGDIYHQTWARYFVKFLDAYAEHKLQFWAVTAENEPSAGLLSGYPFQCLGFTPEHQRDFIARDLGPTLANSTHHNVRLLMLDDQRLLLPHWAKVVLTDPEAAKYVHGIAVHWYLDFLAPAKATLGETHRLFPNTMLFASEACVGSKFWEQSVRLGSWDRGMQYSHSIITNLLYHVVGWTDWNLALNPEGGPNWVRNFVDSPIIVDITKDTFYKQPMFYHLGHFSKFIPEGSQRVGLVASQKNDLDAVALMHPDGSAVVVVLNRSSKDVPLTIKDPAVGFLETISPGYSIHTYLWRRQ
Cytochrome P450 2D6, sequence (P10635 whole entry): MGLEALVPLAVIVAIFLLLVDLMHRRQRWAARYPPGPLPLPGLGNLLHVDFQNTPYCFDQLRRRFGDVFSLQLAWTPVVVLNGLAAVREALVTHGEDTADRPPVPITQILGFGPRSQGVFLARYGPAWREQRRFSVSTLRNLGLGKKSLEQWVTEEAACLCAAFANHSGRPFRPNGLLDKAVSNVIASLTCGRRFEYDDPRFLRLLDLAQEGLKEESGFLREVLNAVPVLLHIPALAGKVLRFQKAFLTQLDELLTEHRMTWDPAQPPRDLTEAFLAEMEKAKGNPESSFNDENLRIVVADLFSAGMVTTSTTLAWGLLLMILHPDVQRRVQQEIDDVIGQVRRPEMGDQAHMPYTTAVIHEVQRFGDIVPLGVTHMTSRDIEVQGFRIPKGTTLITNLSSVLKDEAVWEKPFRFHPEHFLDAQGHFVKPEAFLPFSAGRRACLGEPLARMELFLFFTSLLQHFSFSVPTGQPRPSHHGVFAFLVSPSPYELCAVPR
NS3, sequence (A3EZJ3 whole entry): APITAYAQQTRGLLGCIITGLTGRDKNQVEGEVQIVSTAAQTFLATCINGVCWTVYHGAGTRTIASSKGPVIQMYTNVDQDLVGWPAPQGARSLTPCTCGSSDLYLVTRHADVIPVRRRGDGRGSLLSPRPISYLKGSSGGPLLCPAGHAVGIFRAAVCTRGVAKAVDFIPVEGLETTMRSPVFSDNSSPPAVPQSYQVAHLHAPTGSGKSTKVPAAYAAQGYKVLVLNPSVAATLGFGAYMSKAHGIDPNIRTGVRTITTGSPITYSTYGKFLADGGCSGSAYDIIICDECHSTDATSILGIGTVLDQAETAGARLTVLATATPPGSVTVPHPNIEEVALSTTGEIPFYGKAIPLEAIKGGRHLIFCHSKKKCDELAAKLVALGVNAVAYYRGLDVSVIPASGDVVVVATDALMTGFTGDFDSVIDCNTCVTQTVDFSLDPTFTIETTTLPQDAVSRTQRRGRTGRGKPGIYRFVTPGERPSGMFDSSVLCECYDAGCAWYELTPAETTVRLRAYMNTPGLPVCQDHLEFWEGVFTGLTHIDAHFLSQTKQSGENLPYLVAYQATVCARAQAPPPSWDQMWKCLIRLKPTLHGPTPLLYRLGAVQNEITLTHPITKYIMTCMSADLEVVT

Cc1c2cnn(-c3ccccc3)c(=O)c2c(C)n1CCCC(=O)NCCN1CCN(C)CC1
EC50 [1]: > 55.7 µM (not active)
EC50 [2]: > 55.7 µM (not active)

COC(=O)c1cn(NC(=O)c2ccncc2)c(=O)c2ccccc12
EC50 [3]: > 50 µM (not active)

COc1cccc(-c2oc3ccccc3c(=O)c2O)c1
AC50 [4]: 31.6 µM (inconclusive)

CCN(CC)S(=O)(=O)c1ccc(C(=O)NCCc2ccccn2)cc1
EC50 [5]: > 49.7 µM (not active)
EC50 [6]: > 49.7 µM (not active)

CC(=O)O[C@@H]1/C=C/[C@](C)(O)C[C@@H](C)C/C=C/[C@H]2[C@H](O)C(C)=C(C)[C@H]3[C@H](Cc4ccccc4)NC(=O)[C@@]123
EC50 [7]: 0.208 µM (active)
EC50 [8]: 0.577 µM (active)
EC50 [9]: 0.895 µM (active)
EC50 [10]: 28.2 µM (active)
EC50 [11]: < 0.1 µM (active)
EC50 [12]: 0.397 µM (active)

O=[N+]([O-])c1cc(Cc2ccccc2)cc(/C=N/c2ccc(N3CCOCC3)cc2)c1O
IC50 [13]: 2.64 µM (active)
IC50 [14]: 7.65 µM (active)
IC50 [15]: > 66.6 µM (inactive)
IC50 [16]: > 66.6 µM (inactive)
AC50 [17]: 4.32 µM (active)
IC50 [18]: 9.12 µM (active)

COc1cc(C(c2cc3c(cc2O)OCO3)N2CCOCC2)ccc1O (stereo not drawn)
IC50 [19]: 10.1 µM (not active)

Oc1ccc(-c2csc(-c3cccnc3)n2)cc1O
IC50 [20]: 1.81 µM (active)
IC50 [21]: > 59.6 µM (not active)
AC50 [22]: 7.37 µM (active)
IC50 [23]: 9.47 µM (active)
